Laboratory results from patent publication US20250381269A1, “BISPECIFIC ANTIBODY BINDING EGFR AND B7-H3” (FORTVITA BIOLOGICS (SINGAPORE) PTE. LTD., priority 2022, published 2025).

Experiments:
LS180 = experiment: Proliferation inhibition experiment, LS180 (CRC); type: cell-based; settings: EGFR R521K, KRAS G12D
Method: • (1) NSCLC: plated at 1500-2500 cells/100 μL in a 96-well low-adsorption plate (Corning, CLS7007-24EA) for 3D cell culture, in which the following cell lines and specific amounts were used: • NSCLC: 2000 cells/100 μL/well • NCI-H292: Cell Bank of the Chinese Academy of Sciences, SCSP-582 • NCI-H322: Cobioer, CBP60134 • NCI-H1650: ATCC, CRL-5883 • NCI-H1975: ATCC, CRL-5908 • SK-MES-1: CoBioer, CBP60152 • NCI-H1703: ATCC, HTB-43 • PC9+hB7H3: constructed as described above • CRC and HNSCC: plated at 1500-2000 cells/100 μL in a 96-well white-bottom plate (NUNC, 136101) for 2D cell culture, in which the following cell lines and specific amounts were used: • CRC: 1500 cells/100 μL/well • CCK-81: CoBioer, CBP60581 • HT-55: CoBioer, CBP60012 • H508: CoBioer, CBP60795 • LS180: CoBioer, CBP60034 • HNSCC: 1500 cells/100 μL/well • TE-1: CoBioer, CBP60655 • Colo680: CoBioer, CBP60452. […]

H1703 = type: cell-based, human; settings: EGFR Amplification, KRAS WT, huPBMC:target 50:1, 8 h, LDH
Method: • (1) A CTS medium (Gibco, A3021002) was preheated at 37° C. huPBMC (Miaotong Biotechnology, PB 100C-W) was quickly thawed in a water bath, and then the cells were added slowly to 8 mL of CTS medium (containing 1% DNase). • (2) The mixture was centrifuged at 300 g for 8 min. The supernatant was removed, and the cells were resuspended in 30 mL of CTS (containing 10 μL of DNase), transferred to a T75 flask, and incubated in an incubator at 37° C. overnight. • (3) The suspension cells cultured overnight were taken and centrifuged at 300 g for 8 min. The supernatant was removed, and the cell density was adjusted with CTS. According to an effector/target ratio of effector cells (huPBMCs) to target cells (tumor cells in Table 5) of 50:1, huPBMCs and the tumor cells prepared in advance (Target: huPBMC=1.5E4/7.5E5 cells/well/100 μL) were plated in a 96-well low-adsorption plate (Corning. CLS7007-24EA). • (4) The diluted antibody drug was added to the corresponding cell well plate and cultured at 37° C. with 5% CO2 for 8 h. • (5) The mixture was centrifuged at 300 g for 5 min. 50 μL of the supernatant was transferred to a 96-well transparent flat-bottom plate ((NUNC, 136101), 50 μL of the LDH reagent (Promega, G1780) prepared in advance was added to the corresponding well plate, and the plate was left to stand at room temperature for 15-30 min in the dark. • (6) 50 μL LDH stop solution (Promega, G1780) was taken and detected by a multimode microplate reader (Molecular Devices, Spectra MAXi3) at 490 nm for readings.

zalutumumab [Zalu mAb]
Max inhibition (%) Mean ± SD (LS180): 41.0 ± 2.2% | EC50 (H1703): 7 pM
